The values that follow come from patent US20030027745A1, “Diagnostic and prognostic method for evaluating ocular inflammation and oxidative stress and the treatment of the same” (priority 2001, published 2003).

Experiment [1] deals with reduced blood glutathione (GSH). Put plainly: Blood glutathione (GSH) levels in an ARMD patient before and after NAC treatment. Format: in vivo. To be noted: ARMD patient taking NAC compared to the same patient before taking NAC, FIG. 1. An excerpt:
FIG. 1 is a chart showing the decreased reduced blood glutathione (GSH) levels in an Age-Related Macular Degeneration patient, prior to and following treatment of the patient with N-acetylcysteine (NAC).
It is known that GSH levels decrease in cells that are exposed to oxidative stress and inflammation. Decreases in GSH lead to even further increased oxidative stresses. […] Since it shown that patients with ARMD, as opposed to the control subjects, have decreased levels of GSH and that the levels of GSH increased following NAC treatment, alterations in GSH, GSSG and other factors when analyzed alone or in combination, can be used to help identify ARMD and other patients who have increased ocular oxidative stress and/or inflammation. For example, these responses may occur in the eye of ARMD or other patients as the disease progresses from its dry to wet forms or from less serious to more serious wet forms. Consequently, measurements of these factors could provide a way of diagnosing and following the progression of ARMD or other conditions in patients, especially when the measurements are made sequentially and compared repeatedly in the same individual.
A second aspect of the invention is that the effectiveness of treatments that alter oxidative stress can be assessed by the measurement, especially sequential measurement, of blood factors. […]

For a further experiment, the system named is drusen. Put plainly: Number of drusen in an ARMD patient following NAC treatment. Type of experiment: in vivo. To be noted: FIG. 2.

On to `CC(=O)N[C@@H](CS)C(=O)O` [NAC, N-acetylcysteine], for which the GSH levels entry in experiment [1] is “increased”. Also, the “drusen (number of drusens, a retinal abnormality)” value in the experiment with drusen was “decreased”.
